How the values were obtained:
[1] = Safety and tolerability after intranasal administration to healthy male subjects; assay type: in vivo, human; details: healthy male humans, nasal administration, 5, 10 and 20 mg; blood pressure, heart rate, adverse events
Description: (§1) The rate and extent of absorption of melagatran as well as the safety and tolerability were investigated after intranasal administration to six healthy male subjects (between 20 and 40 years of age, body weight between 66 and 86 kg). The trial comprised three study days, separated by wash-out periods of 6-28 days. On study day 1, a single dose of 5 mg of melagatran was administered. The following two study days 10 mg and 20 mg, respectively, were administered.
(§2) Samples for determination of plasma concentration of melagatran (by LC-MS) and for degree of anticoagulation were collected before and up to 10 hours after drug administration. Safety measurements included blood pressure, heart rate and recording of adverse events.
(§3) The safety and tolerability of melagatran when administered nasally were considered satisfactory.

[2] = Bioavailability of intranasal melagatran in rats, with and without absorption enhancers; assay type: in vivo; details: rat, inhaled or intranasal
Description: Using standard techniques, melagatran was administered to rats in formulations with and without the enhancers SDS (sodium dodecyl sulfate) or EDTA. The bioavailability was measured by analysis of blood plasma samples using standrad techniques.

[3] = Rate and extent of absorption after intranasal administration to healthy male subjects; assay type: in vivo, human; details: healthy male humans; for bioavailability: male, human, plasma, inhaled or intranasal
Description: as §1, §2, §3

N=C(N)c1ccc(CNC(=O)[C@@H]2CCN2C(=O)[C@H](NCC(=O)O)C2CCCCC2)cc1 [melagatran, HOOC—CH2—(R)-Cgl-Aze-Pab]
safety and tolerability [1]: satisfactory
bioavailability ([2]; 20 umol/kg, melagatran alone (no enhancer), blood plasma samples, read-out: bioavailability): ~10%
bioavailability ([2]; plasma, 20 μmol/kg, formulations with enhancers SDS or EDTA, read-out: bioavailability with enhancers): ≤ 19%
dose dependence of rate or extent of absorption ([3]; intranasal, 5, 10 and 20 mg): no indication of a dose dependent rate or extent of absorption
absorption after intranasal administration (rate) ([3]; intranasal, 5-20 mg): rapid
bioavailability ([3]; 5 mg, intranasal, single dose 5 mg, six subjects, read-out: median bioavailability): 19%
bioavailability ([3]; 10 mg, intranasal, single dose 10 mg, six subjects, read-out: median bioavailability): 12%
bioavailability ([3]; 20 mg, intranasal, 5, 10 and 20 mg, read-out: bioavailability, range over the six subjects at the three doses): 7 to 45%
bioavailability ([3]; 20 mg, intranasal, single dose 20 mg, six subjects, read-out: median bioavailability): 19%

Reference: patent US20060014699A1, “Aqueous pharmaceutical formulaton comprising the thrombin inhibitor melagatran and use of the formulation in the manufacture of a medicament for use by nasal administration in treating thromboembolism” (AstraZeneca AB, priority 2002, published 2006)
